According to article PMC12328261, “Modulating Antimicrobial Activity and Structure of the Peptide Esc(1‐21) via Site‐Specific Isopeptide Bond Formation” (Journal of Peptide Science, 2025):
*1 amine or outer side, *2 acyl side, *3 side chain or, on linkers, in order; H or OH if unused. Where a SMILES comes first, the peptide text is derived from it. Bridges are numbered along the chain shown (N, C = ends). Roman numbers before positions name the chains, in order. Where no end group is shown, it is not given here. Side-chain parts run from the residue outwards. [ ]: non-standard residue; d: D form. εLys = N[C@@H](CCCCN[*:1])C(=O)[*:2]

Experiments:
[1] = test system: RBCs; design: method as in PMID 32722535; details: 64 µM; cited from earlier work
[2] = test system: S. aureus ATCC 25923; assay type: cell-based, Staphylococcus aureus
Procedure: (§1) The antimicrobial activity of Esc(1‐21) analogs was assessed by determining the minimal inhibitory concentration (MIC) against a panel of representative Gram‐negative and Gram‐positive bacteria. […] The bacteria were then diluted in Mueller‐Hinton (MH) broth at a concentration of 2 × 10^6 colony‐forming units (CFU)/mL. Aliquots (50 μL) were added to 50 μL of MH containing serial two‐fold dilutions of the peptides, which had been previously prepared in the wells of a 96‐well plate, achieving a final cell concentration of 10^6 CFU/mL. […] To evaluate the antibiofilm activity of the tested peptides, bacteria were diluted to a cell density of 10^6 CFU/mL and aliquots of 100 μL were dispensed into the wells of a 96‐multiwell plate and incubated for 20 h at 37°C to allow biofilm formation. Planktonic cells were then removed, and each well was washed twice with 150 μL of phosphate buffered saline (PBS). Each well was filled with PBS supplemented with different 2‐fold serial dilutions of the tested peptides and the plate was incubated for 2 h at 37°C. After two washes with PBS, biofilm viability was assessed by adding 150 μL of MTT (0.5 mg/mL). The plate was incubated for 4 h at 37°C and the reaction was then stopped by adding SDS (final concentration equal to 5% v/v). The absorbance of each well was measured at 570 nm with a microplate reader (Infinite M200; Tecan, Salzburg, Austria), and the percentage of biofilm viability was calculated with respect to the untreated samples.

[3] = test system: P. aeruginosa ATCC 15692; assay type: cell-based, Pseudomonas aeruginosa
Procedure: as §1

[4] = test system: P. aeruginosa ATCC 27853; assay type: cell-based, Pseudomonas aeruginosa
Procedure: as §1

[5] = test system: S. epidermidis ATCC 12228; assay type: cell-based, Staphylococcus epidermidis
Procedure: as §1

[6] = test system: E. coli ATCC 25922; assay type: cell-based, Escherichia coli
Procedure: as §1

Row | Compound | Hemolysis [1] | Antimicrobial activity (MIC) [2] | Antimicrobial activity (MIC) [3] | Antimicrobial activity (MIC) [4] | Antimicrobial activity (MIC) [5] | Antimicrobial activity (MIC) [6]
1 | GIFSKLAGKKIKNLLISGLKG-NH2 [Esc(1‐21), Esculentin‐1a(1‐21)NH2] | 10-15% | – | – | – | – | –
2 | CC[C@H](C)[C@H](NC(=O)CN)C(=O)N[C@@H](Cc1ccccc1)C(=O)N[C@@H](CO)C(=O)N[C@@H](CCCCN)C(=O)N[C@@H](CC(C)C)C(=O)N[C@@H](C)C(=O)NCC(=O)NCCCC[C@H](N)C(=O)N[C@@H](CCCCN)C(=O)N[C@H](C(=O)N[C@@H](CCCCN)C(=O)N[C@@H](CC(N)=O)C(=O)N[C@@H](CC(C)C)C(=O)N[C@@H](CC(C)C)C(=O)N[C@H](C(=O)N[C@@H](CO)C(=O)NCC(=O)N[C@@H](CC(C)C)C(=O)N[C@@H](CCCCN)C(=O)NCC(N)=O)[C@@H](C)CC)[C@@H](C)CC [Esc(1‐21)ε9] (I: H-KKIKNLLISGLKG-NH2 / II: H-GIFSKLAG; amide I:1-II:C) | – | > 50 µM | 6.25 µM | 6.25 µM | 12.5 µM | 3.12 µM
3 | CC[C@H](C)[C@H](NC(=O)CN)C(=O)N[C@@H](Cc1ccccc1)C(=O)N[C@@H](CO)C(=O)NCCCC[C@H](N)C(=O)N[C@@H](CC(C)C)C(=O)N[C@@H](C)C(=O)NCC(=O)N[C@@H](CCCCN)C(=O)N[C@@H](CCCCN)C(=O)N[C@H](C(=O)N[C@@H](CCCCN)C(=O)N[C@@H](CC(N)=O)C(=O)N[C@@H](CC(C)C)C(=O)N[C@@H](CC(C)C)C(=O)N[C@H](C(=O)N[C@@H](CO)C(=O)NCC(=O)N[C@@H](CC(C)C)C(=O)N[C@@H](CCCCN)C(=O)NCC(N)=O)[C@@H](C)CC)[C@@H](C)CC [Esc(1‐21)ε5] (H-K([Ser-Phe-Ile-Gly])LAGKKIKNLLISGLKG-NH2) | – | > 50 µM | 6.25 µM | 12.5 µM | 25 µM | 3.12 µM
4 | CC[C@H](C)[C@H](NC(=O)CN)C(=O)N[C@@H](Cc1ccccc1)C(=O)N[C@@H](CO)C(=O)N[C@@H](CCCCN)C(=O)N[C@@H](CC(C)C)C(=O)N[C@@H](C)C(=O)NCC(=O)N[C@@H](CCCCN)C(=O)N[C@@H](CCCCN)C(=O)N[C@H](C(=O)NCCCC[C@H](N)C(=O)N[C@@H](CC(N)=O)C(=O)N[C@@H](CC(C)C)C(=O)N[C@@H](CC(C)C)C(=O)N[C@H](C(=O)N[C@@H](CO)C(=O)NCC(=O)N[C@@H](CC(C)C)C(=O)N[C@@H](CCCCN)C(=O)NCC(N)=O)[C@@H](C)CC)[C@@H](C)CC [Esc(1‐21)ε12] (H-GIFSKLAGKKI[εLys]NLLISGLKG-NH2) | – | > 50 µM | 25 µM | 25 µM | > 50 µM | 25 µM
5 | CC[C@H](C)[C@H](NC(=O)CN)C(=O)N[C@@H](Cc1ccccc1)C(=O)N[C@@H](CO)C(=O)N[C@@H](CCCCN)C(=O)N[C@@H](CC(C)C)C(=O)N[C@@H](C)C(=O)NCC(=O)N[C@@H](CCCCN)C(=O)NCCCC[C@H](N)C(=O)N[C@H](C(=O)N[C@@H](CCCCN)C(=O)N[C@@H](CC(N)=O)C(=O)N[C@@H](CC(C)C)C(=O)N[C@@H](CC(C)C)C(=O)N[C@H](C(=O)N[C@@H](CO)C(=O)NCC(=O)N[C@@H](CC(C)C)C(=O)N[C@@H](CCCCN)C(=O)NCC(N)=O)[C@@H](C)CC)[C@@H](C)CC [Esc(1‐21)ε10] (I: H-KIKNLLISGLKG-NH2 / II: H-GIFSKLAGK; amide I:1-II:C) | – | > 50 µM | 6.25 µM | 12.5 µM | 25 µM | 6.25 µM
6 | CC[C@H](C)[C@H](NC(=O)CN)C(=O)N[C@@H](Cc1ccccc1)C(=O)N[C@@H](CO)C(=O)N[C@@H](CCCCN)C(=O)N[C@@H](CC(C)C)C(=O)N[C@@H](C)C(=O)NCC(=O)N[C@@H](CCCCN)C(=O)N[C@@H](CCCCN)C(=O)N[C@H](C(=O)N[C@@H](CCCCN)C(=O)N[C@@H](CC(N)=O)C(=O)N[C@@H](CC(C)C)C(=O)N[C@@H](CC(C)C)C(=O)N[C@H](C(=O)N[C@@H](CO)C(=O)NCC(=O)N[C@@H](CC(C)C)C(=O)NCCCC[C@H](N)C(=O)NCC(N)=O)[C@@H](C)CC)[C@@H](C)CC [Esc(1‐21)ε20] (H-GIFSKLAGKKIKNLLISGL[εLys]G-NH2) | – | > 50 µM | 1.56 µM | 1.56 µM | 3.12 µM | 1.56 µM
